Laboratory results from ChEMBL document CHEMBL4118098, “Discovery of DS28120313 as a potent orally active hepcidin production inhibitor: Design and optimization of novel 4,6-disubstituted indazole derivatives” (Bioorg Med Chem Lett, 2017).
Each block holds one compound with its values, some of them ahead of it.

Legend:
[1] = molecular target: T1, MAP kinase-activated protein kinase 5 (Homo sapiens) (UniProt Q8IW41); assay: Inhibition of PRAK (unknown origin) at 0.164 uM relative to control
T1 sequence (whole entry): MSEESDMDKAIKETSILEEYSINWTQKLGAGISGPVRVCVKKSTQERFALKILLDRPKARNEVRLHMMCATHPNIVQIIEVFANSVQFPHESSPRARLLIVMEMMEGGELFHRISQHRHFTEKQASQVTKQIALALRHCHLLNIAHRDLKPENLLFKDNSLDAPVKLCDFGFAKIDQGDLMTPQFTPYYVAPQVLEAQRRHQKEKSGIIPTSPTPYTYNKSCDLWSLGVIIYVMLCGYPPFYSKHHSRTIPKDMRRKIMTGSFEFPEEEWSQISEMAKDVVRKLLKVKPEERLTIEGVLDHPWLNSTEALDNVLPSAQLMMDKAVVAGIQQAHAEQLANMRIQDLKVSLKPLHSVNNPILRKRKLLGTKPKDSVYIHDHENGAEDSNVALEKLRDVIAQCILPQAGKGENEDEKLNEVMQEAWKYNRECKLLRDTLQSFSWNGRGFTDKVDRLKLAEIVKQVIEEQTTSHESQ

[2] = molecular target: Ribosomal protein S6 kinase alpha-5 (Homo sapiens) (UniProt O75582); assay: Inhibition of MSK1 (unknown origin) at 0.164 uM relative to control
[3] = molecular target: Ribosomal protein S6 kinase alpha-2 (Homo sapiens) (UniProt Q15349); assay: Inhibition of RSK3 (unknown origin) at 0.164 uM relative to control
[4] = molecular target: Tyrosine-protein kinase receptor UFO (Homo sapiens) (UniProt P30530); assay: Inhibition of AXL (unknown origin) at 0.164 uM relative to control
[5] = molecular target: Maternal embryonic leucine zipper kinase (Homo sapiens) (UniProt Q14680); assay: Inhibition of MELK (unknown origin) at 0.164 uM relative to control
[6] = molecular target: T2, AMPK alpha2/beta1/gamma1 (Homo sapiens) (UniProt P54646+P54619+Q9Y478); assay: Inhibition of AMPK-alpha2/beta1/gamma1 (unknown origin) at 0.164 uM relative to control; format: protein-complex assay
[7] = molecular target: Fibroblast growth factor receptor 2 (Homo sapiens) (UniProt P21802); assay: Inhibition of FGFR2 (unknown origin) at 0.164 uM relative to control
[8] = test system: Tyrosine-protein kinase ABL1 (Homo sapiens), P00519 [Q252H]; assay: Inhibition of Abl Q252H mutant (unknown origin) at 0.164 uM relative to control
[9] = molecular target: Aurora kinase C (Homo sapiens) (UniProt Q9UQB9); assay: Inhibition of AurC (unknown origin) at 0.164 uM relative to control
[10] = molecular target: Ephrin type-A receptor 3 (Homo sapiens) (UniProt P29320); assay: Inhibition of EPHA3 (unknown origin) at 0.164 uM relative to control
[11] = molecular target: Tyrosine-protein kinase Fes/Fps (Homo sapiens) (UniProt P07332); assay: Inhibition of FES (unknown origin) at 0.164 uM relative to control
[12] = molecular target: Tyrosine-protein kinase Tec (Homo sapiens) (UniProt P42680); assay: Inhibition of TEC (unknown origin) at 0.164 uM relative to control
[13] = molecular target: T3, Serine/threonine-protein kinase DCLK1 (Homo sapiens) (UniProt O15075); assay: Inhibition of DCAMKL1 (unknown origin) at 0.164 uM relative to control
T3 sequence (whole entry): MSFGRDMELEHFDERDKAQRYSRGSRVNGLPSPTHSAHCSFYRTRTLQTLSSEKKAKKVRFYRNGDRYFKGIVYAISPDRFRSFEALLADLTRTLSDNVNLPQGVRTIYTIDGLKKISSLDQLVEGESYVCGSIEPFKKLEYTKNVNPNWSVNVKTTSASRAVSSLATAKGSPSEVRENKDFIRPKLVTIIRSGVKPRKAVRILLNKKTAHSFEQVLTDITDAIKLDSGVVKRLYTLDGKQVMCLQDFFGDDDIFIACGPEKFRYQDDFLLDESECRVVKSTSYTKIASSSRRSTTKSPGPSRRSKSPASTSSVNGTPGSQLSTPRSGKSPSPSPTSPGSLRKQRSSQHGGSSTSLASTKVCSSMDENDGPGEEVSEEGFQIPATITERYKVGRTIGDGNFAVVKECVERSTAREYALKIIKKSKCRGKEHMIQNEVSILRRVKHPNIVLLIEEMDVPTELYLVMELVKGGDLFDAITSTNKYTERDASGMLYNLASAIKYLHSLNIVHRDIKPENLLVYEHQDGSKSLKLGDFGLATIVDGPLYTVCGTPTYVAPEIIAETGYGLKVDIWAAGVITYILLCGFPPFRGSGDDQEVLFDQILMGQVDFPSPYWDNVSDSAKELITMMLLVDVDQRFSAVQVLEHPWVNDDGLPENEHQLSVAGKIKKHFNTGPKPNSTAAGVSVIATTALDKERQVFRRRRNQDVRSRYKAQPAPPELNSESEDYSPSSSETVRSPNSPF

[14] = molecular target: Serine/threonine-protein kinase pim-2 (Homo sapiens) (UniProt Q9P1W9); assay: Inhibition of PIM2 (unknown origin) at 0.19 uM relative to control
[15] = molecular target: Protein kinase C theta type (Homo sapiens) (UniProt Q04759); assay: Inhibition of PKC-theta (unknown origin) at 0.19 uM relative to control
[16] = molecular target: Macrophage colony-stimulating factor 1 receptor (Homo sapiens) (UniProt P07333); assay: Inhibition of FMS (unknown origin) at 0.19 uM relative to control
[17] = molecular target: T2, AMPK alpha2/beta1/gamma1 (Homo sapiens); assay: Inhibition of AMPK-alpha2/beta1/gamma1 (unknown origin) at 0.19 uM relative to control; format: protein-complex assay
[18] = molecular target: Serine/threonine-protein kinase 24 (Homo sapiens) (UniProt Q9Y6E0); assay: Inhibition of MST3 (unknown origin) at 0.19 uM relative to control
[19] = molecular target: Calcium/calmodulin-dependent protein kinase type 1 (Homo sapiens) (UniProt Q14012); assay: Inhibition of CaMK1a (unknown origin) at 0.19 uM relative to control
[20] = test system: Tyrosine-protein kinase ABL1 (Homo sapiens), P00519 [T315I]; assay: Inhibition of Abl T315I mutant (unknown origin) at 0.19 uM relative to control
[21] = molecular target: Tyrosine-protein kinase Fer (Homo sapiens) (UniProt P16591); assay: Inhibition of Fer (unknown origin) at 0.19 uM relative to control
[22] = molecular target: Dual specificity tyrosine-phosphorylation-regulated kinase 4 (Homo sapiens) (UniProt Q9NR20); assay: Inhibition of DYRK4 (unknown origin) at 0.19 uM relative to control
[23] = test system: Leucine-rich repeat serine/threonine-protein kinase 2 (Homo sapiens), Q5S007 [G2019S]; assay: Inhibition of LRRK2 G2019S mutant (unknown origin) at 0.19 uM relative to control
[24] = molecular target: MAP kinase-interacting serine/threonine-protein kinase 2 (Homo sapiens) (UniProt Q9HBH9); assay: Inhibition of MNK2 (unknown origin) at 0.19 uM relative to control

T2 sequence (P54619 whole entry partner): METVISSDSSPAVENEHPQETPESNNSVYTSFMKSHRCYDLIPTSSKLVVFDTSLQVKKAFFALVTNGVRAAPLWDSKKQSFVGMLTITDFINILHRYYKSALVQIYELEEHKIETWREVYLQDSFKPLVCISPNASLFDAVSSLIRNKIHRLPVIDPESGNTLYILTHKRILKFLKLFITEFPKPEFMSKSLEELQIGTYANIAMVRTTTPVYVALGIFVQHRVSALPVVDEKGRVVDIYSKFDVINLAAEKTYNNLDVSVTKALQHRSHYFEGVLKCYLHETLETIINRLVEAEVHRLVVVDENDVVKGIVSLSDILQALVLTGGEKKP
T2 sequence (P54646 whole entry): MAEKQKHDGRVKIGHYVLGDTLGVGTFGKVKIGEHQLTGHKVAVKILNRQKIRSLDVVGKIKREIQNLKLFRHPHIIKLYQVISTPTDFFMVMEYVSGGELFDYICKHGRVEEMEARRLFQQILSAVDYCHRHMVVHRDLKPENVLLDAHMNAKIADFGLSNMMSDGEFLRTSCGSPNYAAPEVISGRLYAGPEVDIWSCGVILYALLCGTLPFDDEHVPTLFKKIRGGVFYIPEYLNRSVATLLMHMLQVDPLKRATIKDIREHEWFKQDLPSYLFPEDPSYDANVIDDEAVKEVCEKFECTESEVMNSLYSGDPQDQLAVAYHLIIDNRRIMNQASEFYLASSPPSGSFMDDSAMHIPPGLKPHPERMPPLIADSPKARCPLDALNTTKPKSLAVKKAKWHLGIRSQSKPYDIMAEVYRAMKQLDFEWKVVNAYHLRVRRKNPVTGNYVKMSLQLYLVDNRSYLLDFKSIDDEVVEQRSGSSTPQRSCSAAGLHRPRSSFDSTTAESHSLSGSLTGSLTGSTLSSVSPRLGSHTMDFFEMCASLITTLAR
T2 sequence (Q9Y478 2-270 partner limits assumed): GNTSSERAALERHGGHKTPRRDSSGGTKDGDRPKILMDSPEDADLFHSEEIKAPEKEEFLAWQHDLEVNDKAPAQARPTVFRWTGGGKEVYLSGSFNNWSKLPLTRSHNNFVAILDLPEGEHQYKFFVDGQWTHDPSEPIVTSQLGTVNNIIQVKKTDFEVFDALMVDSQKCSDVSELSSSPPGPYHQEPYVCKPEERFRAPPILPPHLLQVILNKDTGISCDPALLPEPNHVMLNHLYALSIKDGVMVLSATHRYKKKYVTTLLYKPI
Aurora kinase C (Homo sapiens), sequence (Q9UQB9 whole entry): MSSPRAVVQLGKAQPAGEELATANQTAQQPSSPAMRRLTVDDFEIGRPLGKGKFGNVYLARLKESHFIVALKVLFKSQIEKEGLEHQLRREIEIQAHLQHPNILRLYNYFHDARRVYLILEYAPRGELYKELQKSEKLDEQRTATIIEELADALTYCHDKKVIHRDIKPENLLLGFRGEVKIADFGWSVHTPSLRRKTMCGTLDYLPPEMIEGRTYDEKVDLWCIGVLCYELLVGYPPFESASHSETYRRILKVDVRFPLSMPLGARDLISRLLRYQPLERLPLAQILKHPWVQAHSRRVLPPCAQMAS
Fibroblast growth factor receptor 2 (Homo sapiens), sequence (P21802 22-821 limits assumed): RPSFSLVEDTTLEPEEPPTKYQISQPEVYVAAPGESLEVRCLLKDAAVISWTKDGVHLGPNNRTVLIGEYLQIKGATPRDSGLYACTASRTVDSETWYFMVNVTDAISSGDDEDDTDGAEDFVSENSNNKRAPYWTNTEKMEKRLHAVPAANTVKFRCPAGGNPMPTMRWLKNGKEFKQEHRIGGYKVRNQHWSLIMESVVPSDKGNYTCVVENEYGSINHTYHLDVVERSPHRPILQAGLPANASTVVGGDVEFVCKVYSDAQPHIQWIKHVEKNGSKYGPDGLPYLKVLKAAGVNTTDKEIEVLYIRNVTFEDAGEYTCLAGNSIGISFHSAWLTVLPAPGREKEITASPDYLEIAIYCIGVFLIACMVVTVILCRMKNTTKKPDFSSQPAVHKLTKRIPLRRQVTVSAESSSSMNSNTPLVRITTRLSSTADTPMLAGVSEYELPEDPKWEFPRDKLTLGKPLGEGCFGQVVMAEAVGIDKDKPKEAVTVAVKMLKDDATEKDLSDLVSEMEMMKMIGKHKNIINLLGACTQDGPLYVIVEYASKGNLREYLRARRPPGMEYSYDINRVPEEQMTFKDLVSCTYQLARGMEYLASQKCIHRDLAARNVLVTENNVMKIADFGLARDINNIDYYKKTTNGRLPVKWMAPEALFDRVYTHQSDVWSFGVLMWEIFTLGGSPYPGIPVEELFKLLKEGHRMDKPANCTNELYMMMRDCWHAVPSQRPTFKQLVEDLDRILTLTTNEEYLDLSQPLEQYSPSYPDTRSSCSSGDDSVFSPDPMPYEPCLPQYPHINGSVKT
Leucine-rich repeat serine/threonine-protein kinase 2 (Homo sapiens), Q5S007 [G2019S], sequence (Q5S007 whole entry G2019S): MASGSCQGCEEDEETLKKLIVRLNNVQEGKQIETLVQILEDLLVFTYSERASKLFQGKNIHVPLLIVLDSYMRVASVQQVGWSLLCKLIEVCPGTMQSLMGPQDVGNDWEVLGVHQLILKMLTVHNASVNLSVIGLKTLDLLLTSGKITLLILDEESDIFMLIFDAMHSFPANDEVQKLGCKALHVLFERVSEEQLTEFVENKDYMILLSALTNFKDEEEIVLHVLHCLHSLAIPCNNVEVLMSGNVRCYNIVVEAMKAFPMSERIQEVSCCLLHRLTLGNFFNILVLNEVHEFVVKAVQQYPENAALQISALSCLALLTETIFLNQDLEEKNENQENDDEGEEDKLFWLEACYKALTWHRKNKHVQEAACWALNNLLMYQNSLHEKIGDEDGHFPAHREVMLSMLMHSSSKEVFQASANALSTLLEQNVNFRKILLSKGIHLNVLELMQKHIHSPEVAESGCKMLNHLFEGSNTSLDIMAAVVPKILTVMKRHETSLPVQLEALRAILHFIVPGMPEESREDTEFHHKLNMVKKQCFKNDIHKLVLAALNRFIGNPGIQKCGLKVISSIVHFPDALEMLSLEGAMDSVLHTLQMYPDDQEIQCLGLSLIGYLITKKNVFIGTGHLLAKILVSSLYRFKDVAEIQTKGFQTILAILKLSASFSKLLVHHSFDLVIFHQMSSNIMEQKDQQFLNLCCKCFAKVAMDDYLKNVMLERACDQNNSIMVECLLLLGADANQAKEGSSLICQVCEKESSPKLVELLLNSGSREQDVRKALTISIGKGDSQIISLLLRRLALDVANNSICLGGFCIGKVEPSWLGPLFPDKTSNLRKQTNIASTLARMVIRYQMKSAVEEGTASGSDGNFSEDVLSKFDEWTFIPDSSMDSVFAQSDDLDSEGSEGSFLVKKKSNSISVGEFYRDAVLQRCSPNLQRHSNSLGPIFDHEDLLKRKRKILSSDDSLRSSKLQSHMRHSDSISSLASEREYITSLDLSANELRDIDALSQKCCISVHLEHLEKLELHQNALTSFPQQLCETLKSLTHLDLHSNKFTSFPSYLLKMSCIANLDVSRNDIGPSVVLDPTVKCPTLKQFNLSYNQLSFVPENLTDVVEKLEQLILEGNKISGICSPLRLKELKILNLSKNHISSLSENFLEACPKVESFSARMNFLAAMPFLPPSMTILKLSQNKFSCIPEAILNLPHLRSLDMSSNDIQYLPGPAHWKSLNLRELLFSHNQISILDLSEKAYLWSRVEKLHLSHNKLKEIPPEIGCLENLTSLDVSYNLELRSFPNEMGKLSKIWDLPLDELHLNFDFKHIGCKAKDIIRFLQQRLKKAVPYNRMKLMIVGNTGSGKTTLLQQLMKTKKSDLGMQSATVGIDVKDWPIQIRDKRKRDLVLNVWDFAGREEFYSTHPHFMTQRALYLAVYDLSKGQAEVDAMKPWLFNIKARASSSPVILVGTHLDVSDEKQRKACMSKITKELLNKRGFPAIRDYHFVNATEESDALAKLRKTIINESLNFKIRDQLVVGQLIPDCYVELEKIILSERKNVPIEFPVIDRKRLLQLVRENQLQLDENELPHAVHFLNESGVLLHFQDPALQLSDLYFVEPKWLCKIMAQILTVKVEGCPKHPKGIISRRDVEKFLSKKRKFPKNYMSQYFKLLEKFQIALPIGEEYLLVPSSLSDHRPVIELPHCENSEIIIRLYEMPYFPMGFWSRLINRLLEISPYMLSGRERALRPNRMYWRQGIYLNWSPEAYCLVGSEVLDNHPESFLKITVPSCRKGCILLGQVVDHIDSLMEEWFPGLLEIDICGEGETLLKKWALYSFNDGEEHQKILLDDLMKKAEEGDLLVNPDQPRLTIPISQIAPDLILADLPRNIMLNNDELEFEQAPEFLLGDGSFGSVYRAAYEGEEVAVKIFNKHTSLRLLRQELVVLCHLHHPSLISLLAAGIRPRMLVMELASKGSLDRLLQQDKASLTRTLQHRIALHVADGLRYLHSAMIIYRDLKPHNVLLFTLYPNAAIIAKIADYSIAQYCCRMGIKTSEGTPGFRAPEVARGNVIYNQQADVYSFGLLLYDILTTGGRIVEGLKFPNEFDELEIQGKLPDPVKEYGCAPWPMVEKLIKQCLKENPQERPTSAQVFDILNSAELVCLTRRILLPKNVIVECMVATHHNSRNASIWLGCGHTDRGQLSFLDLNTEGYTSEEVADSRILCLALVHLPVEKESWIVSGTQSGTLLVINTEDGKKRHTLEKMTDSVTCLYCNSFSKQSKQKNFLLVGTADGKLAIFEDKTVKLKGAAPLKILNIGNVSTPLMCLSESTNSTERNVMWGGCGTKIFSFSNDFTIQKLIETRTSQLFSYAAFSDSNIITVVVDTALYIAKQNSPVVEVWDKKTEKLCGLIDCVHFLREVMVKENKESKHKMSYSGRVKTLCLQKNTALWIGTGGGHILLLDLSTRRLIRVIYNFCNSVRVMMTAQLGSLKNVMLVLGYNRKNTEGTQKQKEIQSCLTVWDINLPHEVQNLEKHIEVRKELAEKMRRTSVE

- inhibition [1]: 3.3%
- inhibition [2]: 7.7%
- inhibition [3]: 4.7%
- inhibition [4]: 4%
- inhibition [5]: 10.7%
- inhibition [6]: 0.3%
- inhibition [7]: -5.3%
- inhibition [8]: 0.3%
- inhibition [9]: 6.3%
- inhibition [10]: -6.7%
- inhibition [11]: 11.7%
- inhibition [12]: -4.3%
- inhibition [13]: -4.7%
SMILES: COC(=O)Nc1cc(-c2c(C3CC3)n[nH]c2C)cc2[nH]ncc12

- inhibition [14]: 2%
- inhibition [15]: 1.7%
- inhibition [16]: 21.3%
- inhibition [17]: 13.7%
- inhibition [18]: 33%
- inhibition [19]: 0.3%
- inhibition [20]: 51.7%
- inhibition [21]: -2.3%
- inhibition [22]: -0.7%
- inhibition [23]: 18%
- inhibition [24]: 0%
SMILES: Cc1[nH]nc(C2CC2)c1-c1ccc2c(-c3ccc(N4CCN(C)CC4)nc3)n[nH]c2c1
